Data taken from patent publication US20260306526A1, “COMBINATION THERAPY FOR BACTERIAL INFECTIONS COMPRISING ZINC-CHELATOR, BETA-LACTAM ANTIBIOTIC AND SERINE BETA-LACTAMASE INHIBITOR” (priority 2023, published 2026).

How the values were obtained:
MBLs = settings: cited from earlier work
[1] = system: K. pneumoniae K66-45 (NDM-1); experiment: MIC determination of meropenem with zinc chelator at varying zinc concentrations in the medium (Example 31); format: cell-based, Klebsiella pneumoniae
Description: An experiment was conducted to determine the Minimal Inhibitory Concentration (MIC) of meropenem (MEM) in combination with the zinc chelator according to Example 26 of WO 2018/033719 at varying concentrations of zinc in the medium. The medium was a Mueller Hinton broth from Thermo Fischer. The zinc content was measured as 5.6 μM using ICP-MS. The concentration of zinc in the plasma of healthy animals has been determined to be close to this value. In infectious tissue, the zinc concentration is below the limit of detection (see, for example Bilinskaya et al., Am. Soc. For Microbiology (2020), 58, pages 1-8). Zinc sulfate was then added to this broth to obtain three further concentrations: 15.6 μM, 25.6 μM and 35.6 μM of zinc, keeping all other parameters constant.
As a model bacterial strain for this experiment, the MIC of MEM vs. K. pneumoniae K66-45 (NDM-1) was then determined in broth containing the four concentrations of zinc following the protocol given in Example 1. The EUCAST MIC value for MEM alone (EUCAST: standardization organization for MIC values of antibiotics) is 4-8 μM, meaning that if a bacterial strain is inhibited at lower concentrations than the MIC value, the bacterial strain is sensitive(S) to MEM. Correspondingly, if the bacterial strain is not inhibited at MIC or lower, the strain is resistant (R). If the inhibition is within the MIC range 4-8 μM, the resistance is intermediate (I).

[2] = system: clinically isolated gram-negative bacteria with MBL as a resistance mechanism; settings: cited from earlier work
NDM = settings: mouse models; relatively high doses required to reverse carbapenem resistance; cited from earlier work
MBL class IMP = settings: cited from earlier work
MBL-producers = settings: cited from earlier work

NC(=O)[C@@H]1CC[C@@H]2CN1C(=O)N2OS(=O)(=O)O [Avibactam, avibactam]
inhibitory activity against MBLs (MBLs): none of these β-lactamase inhibitors possess inhibitory activity against MBLs

CC1=C[C@@H]2CN(C(=O)N2OS(=O)(=O)O)[C@@H]1C(N)=O [ETX2514]
inhibitory activity against MBLs (MBLs): none of these β-lactamase inhibitors possess inhibitory activity against MBLs

C[C@@H](O)[C@H]1C(=O)N2C(C(=O)O)=C(S[C@@H]3CN[C@H](C(=O)N(C)C)C3)[C@H](C)[C@H]12 [Meropenem, meropenem, reference compound]
EUCAST MIC class for MEM alone ([1]; zinc concentration 5.6 μM): S (if a bacterial strain is inhibited at lower concentrations than the MIC value, the bacterial strain is sensitive(S) to MEM)
EUCAST MIC class for MEM alone ([1]; zinc concentration 35.6 μM): R (if the bacterial strain is not inhibited at MIC or lower, the strain is resistant (R))
sensitivity to meropenem alone ([2]; meropenem used alone, many clinical isolates with MBL): resistant to the antibiotic
effect of MEM in combination with the compound of Example 26 of WO 2018/033719 ([2]; same strains, sensitivity reinstated): inhibitory effect

N[C@H](CN[C@H](CN[C@@H](CC(=O)O)C(=O)O)C(=O)O)C(=O)O [aspergillomarasmine A]
in vivo activity (NDM): in vivo activity in mouse models

NCCN[C@H]1CC[C@H](CC(=O)N[C@H]2Cc3cccc(C(=O)O)c3OB2O)CC1 [taniborbactam]
effect in combination with cefepime (MBL class IMP): no effect
activity in combination with cefepime (MBL-producers): potent activity

O=C(O)C[C@@H]1CC[C@H](NC(=O)Cc2cccs2)B(O)O1 [vaborbactam]
inhibitory activity against MBLs (MBLs): none of these β-lactamase inhibitors possess inhibitory activity against MBLs
